The text below walks through data of PMC12040169 (PLOS Biology, 2025).

The data set is described as follows: in vitro. The note with it: human, hela cells, % viability.
For the compound `Cc1cc(Oc2ccccc2)nc(Oc2ccc(OCC(N)=O)nn2)n1` [CBK266687], the viability (as a rule, a read-out of living cells in per cent, often relative to untreated cells) at 28.5 h, 10 µM worked out at 98.5%. Then `COC(=O)C(C)(C)C1c2cc(Br)ccc2OC(=O)C1C(=O)c1ccccc1` (stereo not drawn) [CBK266690], with 102%; and `NS(=O)(=O)c1ccc(S(=O)(=O)NCCc2c[nH]c3ccccc23)cc1` [CBK266691], with 82.2%; and `O=C(CN1C(=O)c2ccccc2C1=O)Nc1ccc(S(=O)(=O)N2CCCCCC2)cc1` [CBK266693], with 91.7%.

Consider `Nc1nnc(SCC(=O)N2CCN(C(c3ccccc3)c3ccccc3)CC2)n1-c1ccccc1` [CBK266696], for which the viability at 28.5 h, 10 µM came out at 108%.

As to `Cc1ccccc1OCC(O)Cn1c(=N)n(CCN2CCCCC2)c2ccccc21` (stereo not drawn) [CBK266698C], the viability at 28.5 h, 10 µM turned out to be 98.1%. With `Cc1nc(NS(=O)(=O)c2ccccc2)sc1NC(=O)Nn1cnnc1` [CBK266699] the figure was 85.4%; with `O=C(Cn1cc(C(=S)N2CCOCC2)c2ccccc21)Nc1ccc2c(c1)OCO2` [CBK266703], 94.6%; with `CSc1cccc(NC(=O)CN(C)S(=O)(=O)c2ccc3ccccc3c2)c1` [CBK266708], 86.2%.

As to `CCc1cc2c(NC(CCSC)C(=O)O)nc(C)nc2s1` (stereo not drawn) [CBK266709], the viability at 28.5 h, 10 µM turned out to be 90.3%.

In the case of `Cc1ccc(-c2nnc3c4ccccc4c(C)nn23)cc1S(=O)(=O)NC(C)c1ccccc1` (stereo not drawn) [CBK266715], the viability at 28.5 h, 10 µM stood at 94.5%. In the case of `Cc1ccc(NC2=NC(C(=O)Nc3ccc(C)c(C)c3)CC(=O)N2)cc1` (stereo not drawn) [CBK266718], the viability at 28.5 h, 10 µM is 96.9%. With `COc1ccc(Cl)cc1NC(=O)CN(C1CCCCC1)S(C)(=O)=O` [CBK266720] the figure was 105%; with `COC(=O)c1c(NC(=O)COc2ccccc2C(C)C)sc2c1CCCC2` [CBK266722], 93.5%. Then `Cc1sc2c(c1C)c(=O)nc1scc(CC(=O)NCCO)n12` [CBK266726], with 96.3%. Then `Cc1ccc(S(=O)(=O)/N=C(\Nc2nc3ccccc3o2)NS(=O)(=O)c2ccc(C)cc2)cc1` [CBK266728], with 86%. In the case of `Cc1ccc(S(=O)(=O)N(C)CC(=O)Nc2ncc(C(F)(F)F)cc2Cl)cc1` [CBK266729], the viability at 28.5 h, 10 µM is 94.8%.

For `Cc1cc(=O)oc2c1c(C)nn2-c1nn[nH]n1` [CBK266732], the viability at 28.5 h, 10 µM amounted to 91%. With `COc1ccccc1Nc1nc(N)nc(CSc2ncccn2)n1` [CBK266734] the figure was 104%; with `Cc1cc(/C=C(/C#N)c2ccc([N+](=O)[O-])cc2)c(C)n1-c1ccc(S(N)(=O)=O)cc1` [CBK266737], 108%; with `Cc1nc(N2CCN(Cc3ccc4c(c3)OCO4)CC2)c2c(C)c(C)sc2n1` [CBK266739], 100%. With `COc1ccc(OCC(=O)Nc2cccc(-c3nnc4c5ccccc5c(C)nn34)c2)cc1` [CBK266743] the figure was 105%; with `O=C1Nc2ccc(S(=O)(=O)NCC(O)c3ccc([N+](=O)[O-])cc3)c3cccc1c23` (stereo not drawn) [CBK266745], 88.1%. Turning to `CN(CC(=O)Nc1cccc(Cl)c1)S(=O)(=O)c1ccc2ccccc2c1` [CBK266746], the viability at 28.5 h, 10 µM was 105%.

As to `COc1ccc(N2CCN(/C(=N/S(=O)(=O)c3ccccc3)Nc3nc(C)cc(C)n3)CC2)cc1` [CBK266750], the viability at 28.5 h, 10 µM was 88.7%. Take `O=C(CSc1nnc(-c2ccncc2)n1-c1ccccc1)c1ccc(Br)cc1` [CBK266758]: the viability at 28.5 h, 10 µM amounted to 93.9%. Regarding `CC(Oc1ccc(Br)cc1)C(=O)Nc1ccc(C(N)=O)cc1` (stereo not drawn) [CBK266760], the viability at 28.5 h, 10 µM came to 112%.

For `Cc1ccc(O)c(NC(=O)c2ccccc2-c2ccccc2C(=O)O)c1` [CBK266763], the viability at 28.5 h, 10 µM was 82.9%. With `Cc1ccc([N+](=O)[O-])cc1NC(=O)c1cc(S(=O)(=O)N(C)C)c(Cl)cc1Cl` [CBK266764], the viability at 28.5 h, 10 µM was determined as 105%.

As to `CC(CNC(=O)COc1cc(Cl)c(Cl)cc1Cl)CN(C)C` (stereo not drawn) [CBK266766], the viability at 28.5 h, 10 µM worked out at 88.1%.
